melting point [°C]	Structure (SMILES)
> 90	Cc1cc(CN(Cc2ccc(F)cc2)c2cc(-c3ccc(C(F)(F)F)cc3)nn2C)cc(C)c1OC(C)(C)C(=O)O [Example 14, 2-[4-({(4-Fluoro-benzyl)-[2-methyl-5-(4-trifluoromethyl-phenyl)-2H-pyrazol-3-yl]-amino}-methyl)-2,6-dimethyl-phenoxy]-2-methyl-propionic acid]
100	Cc1cc(CN(Cc2cccs2)c2sc(-c3ccc(C(F)(F)F)cc3)nc2C)ccc1OC(C)(C)C(=O)O [Example 91, 2-Methyl-2-(2-methyl-4-{([4-methyl-2-(4-trifluoromethylphenyl)thiazol-5-yl-]thiophen-2-ylmethylamino)methyl}phenoxy)propionic acid]
80	Cc1cc(CN(Cc2ccco2)c2sc(-c3ccc(C(F)(F)F)cc3)nc2C)ccc1OC(C)(C)C(=O)O [Example 93, 2-Methyl-2-(2-methyl-4-{([4-methyl-2-(4-trifluoromethylphenyl)thiazol-5-yl]furan-2-ylmethylamino)methyl}phenoxy)propionic acid]

Further lines, the compound ahead of its results:

Structure (SMILES)	melting point [°C]
Cc1cc(CN(Cc2ccsc2)c2sc(-c3ccc(C(F)(F)F)cc3)nc2C)cc(C)c1OC(C)(C)C(=O)O [Example 2, 2-[2,6-Dimethyl-4-({[4-methyl-2-(4-trifluoromethyl-phenyl)-thiazol-5-yl]-thiophen-3-ylmethyl-amino}-methyl)-phenoxy]-2-methyl-propionic acid]	90 to 100
Cc1cc(CN(C)c2cc(-c3ccc(Cl)cc3)nn2C)cc(C)c1OC(C)(C)C(=O)O [Example 6, 2-[4-({[5-(4-Chloro-phenyl)-2-methyl-2H-pyrazol-3-yl]-methyl-amino}-methyl)-2,6-dimethyl-phenoxy]-2-methyl-propionic acid]	158
